Data published in patent publication US6713051B2, “Antiperspirant or deodorant compositions” (Unilever Home & Personal Care USA division of Conopco, Inc., priority 2001, dated 2004).

Experiments:
[1] = system: interleukin-6 (IL-6); test: Skin organotypic culture analysis: AP-induced IL-6 release into the medium; format: cell-based; conditions: 500 μM in medium, AP formulation topical, 24 h; Dunnet's test p<0.05
Method: (§1) The cultures were then incubated at 37° C., 5% CO2, and 95% relative humidity (standard cell culture conditions) for 24 h. The culture medium was assayed for the pro-inflammatory cytokine interleukin-6 (IL-6) and after washing to remove the AP formulation, the viability of the culture was determined using the Thiazoyl blue (MTT) assay (Mosmann, T. J. Immunol. Methods 65, p55 (1983). IL-6 was determined using an Immunoassay (Quantikine, R&D systems).
(§2) In this Example, skin organotypic cultures (Epiderm™, MatTek, USA) were treated topically with the above-identified AP formulation and the trans-10-cis-12 conjugated linoleic acid (TC CLA) was introduced into the medium. The cultures were then incubated at 37° C., 5% CO2, and 95% relative humidity (standard cell culture conditions) for 24 h. The culture medium was assayed for the pro-inflammatory cytokine interleukin-6 (IL-6) and after washing to remove the AP formulation, the viability of the culture was determined by the method described in Example 2.
as §1, with “hours.” for “h.”, “MTT assay.” for “Thiazoyl blue (MTT) assay (Mosmann, T. J. Immunol. Methods 65, p55 (1983).”, “ELISA assay (R&D” for “Immunoassay (Quantikine, R&D”

[2] = biological target: T1, human PPARα (Homo sapiens, UniProt Q07869); test: PPARα reporter gene assay (firefly luciferase, transiently transfected Cos-7 cells); format: cell-based; conditions: for Result (superior activity class achieved): class reached; for Pass at (lowest tested administration level at which the test material passed): pass = activation greater than oleic acid at 100 μM, commonly >1.57 times vehicle control, 24 h treatment
T1 construct: The coding region of a human PPARα cDNA was inserted downstream of the CMV promoter; expressed in transfected cells; host or cells: Cos-7 cells, transient transfection (pcDNA3.1(−)-PPARα, pRSV-RXRα, 3xPPRE-TK-luc reporter, pRL-TK)
T1 sequence (Q07869 1-468): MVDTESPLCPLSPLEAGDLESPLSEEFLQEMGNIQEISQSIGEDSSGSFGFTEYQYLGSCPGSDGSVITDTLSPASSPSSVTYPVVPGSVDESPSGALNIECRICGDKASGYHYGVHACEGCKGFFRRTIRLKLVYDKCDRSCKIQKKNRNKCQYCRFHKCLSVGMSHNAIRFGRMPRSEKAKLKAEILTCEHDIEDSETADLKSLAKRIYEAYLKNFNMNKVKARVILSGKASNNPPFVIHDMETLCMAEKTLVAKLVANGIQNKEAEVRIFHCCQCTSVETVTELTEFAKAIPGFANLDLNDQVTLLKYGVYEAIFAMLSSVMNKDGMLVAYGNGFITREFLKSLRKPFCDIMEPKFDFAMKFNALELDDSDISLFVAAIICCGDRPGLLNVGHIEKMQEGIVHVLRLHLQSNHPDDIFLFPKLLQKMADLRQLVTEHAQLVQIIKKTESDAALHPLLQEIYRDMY
T1 sequence (P19793 1-462 partner): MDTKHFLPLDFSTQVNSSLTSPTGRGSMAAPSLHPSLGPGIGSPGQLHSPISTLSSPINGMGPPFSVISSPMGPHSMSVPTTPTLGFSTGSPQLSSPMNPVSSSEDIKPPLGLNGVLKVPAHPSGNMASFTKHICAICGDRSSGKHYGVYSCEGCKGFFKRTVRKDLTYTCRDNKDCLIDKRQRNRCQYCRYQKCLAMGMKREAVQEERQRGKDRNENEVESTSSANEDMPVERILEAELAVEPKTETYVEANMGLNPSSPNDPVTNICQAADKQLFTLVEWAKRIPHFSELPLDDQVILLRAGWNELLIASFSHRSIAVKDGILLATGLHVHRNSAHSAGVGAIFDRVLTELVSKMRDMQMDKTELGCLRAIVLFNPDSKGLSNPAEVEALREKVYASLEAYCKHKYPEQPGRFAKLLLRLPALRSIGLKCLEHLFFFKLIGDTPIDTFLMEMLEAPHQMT
From the text: One convenient reporter assay for determining whether a fatty acid material is PPARα activating is based upon the firefly luciferase gene.
Fatty acids were screened to identify PPAR activating fatty acids using a reporter assay.
This assay relied on ligands binding to and activating the PPARα protein, which, in turn, activated genes under the control of PPAR response elements (PPRE). In the assay, the firefly luciferase gene was cloned behind a promoter containing 3 copies of the fatty acid binding protein PPRE.
The assay was performed by transient transfection of Cos-7 cells with a mixture of four DNA plasmids. These were:
1) PPAR reporter gene construct (Modified pNF-KB-luc reporter vector (Firefly luciferase reporter vector commercially available form Clontech (NF-kB response element, TK minimal promoter, luc^+, f1 origin, pUC origin, amp^r)). A tandem repeat of 3 PPAR response elements (PPREs) corresponding to the PPRE found in the fatty acid binding protein promoter was inserted upstream of the minimal TK promoter to replace the NF-κB response element);
2) 2) Over-expressing PPARα construct (Modified pcDNA3.1(−) vector (A mammalian expression vector commercially available from Invitrogen (CMV promoter, f1 origin, SV40 origin, ColE1 origin, neo^r, amp^r)). The coding region of a human PPARα cDNA was inserted downstream of the CMV promoter of pcDNA3.1 (−)). […] The coding region of a human RXRα cDNA has been inserted downstream of the RSV promoter. (Gift of V. K. K. Chatterjee, Addenbrooke's Hospital, Cambridge)) 4) Control luciferase construct (pRL-TK Renilla luciferase reporter vector commercially available from Promega (HSV-TK promoter, T7 promoter, Rluc^+, ori, amp^r)). For the transfection, DNA was made up as a mix of PPAR reporter gene: PPARα: RXRα: control in the ratio 40:4:3:3.
Cos-7 cells were grown in Dulbecco's modified Eagle's Medium, also herein referred to as DMEM with 10% foetal calf serum, herein also referred to as FCS at 37° C., 5% CO2 to 80% confluency. Cells were then plated out in 24 well plates at 50,000 cells per well and incubated overnight in DMEM with 10% FCS at 37° C., 5% CO2. Cells were then transfected using the LipofectAMINE reagent (GibcoBRL). For each well 0.4 μg of DNA mix (in 25 μl of DMEM) was incubated with 1 μl LipofectAMINE (in 25 μl of DMEM) for 45 minutes. The mixture was then made up to 250 μl per well and added to the cells, which had been washed with 1 ml of DMEM. Cells were then incubated for 5 hours at 37° C., 5% CO2 and 250 μl DMEM with 10% SBCS (charcoal stripped bovine calf serum) added. Cells were incubated for 18 hours at 37° C., 5% CO2 before being treated with the appropriate compound/extract. Test compounds were made up as 1000× stocks (in DMSO or ethanol as appropriate) and diluted into DMEM with 10% SBCS (500 μl per well) immediately before being added to cells. Each treatment was performed in triplicate. The transfection mix was removed from the cells and replaced with the treatment mix, and incubated for 24 hours at 37° C., 5% CO2. Cells were washed with 1 ml of PBS (without calcium or magnesium) and then lysed with 100 μl per well of 1× Passive Lysis Buffer (as supplied with Promega Dual Luciferase assay kit). Lysis was allowed to continue for 15 minutes and then the lysate was assayed for Firefly and Renilla luciferase activity using the Promega Dual Luciferase assay kit. For the assay, 20 μl of lysate was taken and assayed as described in the kit instructions using a MLX microtiter™ plate luminometer (Dynex).
Firefly luciferase activity (PPAR driven) was normalised against the Renilla luciferase value for that well and the mean calculated for the three wells treated with the same agent. Activity was then expressed as fold activation over the vehicle (DMSO or ethanol) control values for that particular plate.

[3] = system: skin organotypic cultures (Epiderm); test: Viability of skin organotypic cultures (MTT assay); format: cell-based
Method: as §1, §2
as §1, with “hours.” for “h.”, “MTT assay.” for “Thiazoyl blue (MTT) assay (Mosmann, T. J. Immunol. Methods 65, p55 (1983).”, “ELISA assay (R&D” for “Immunoassay (Quantikine, R&D”

[4] = system: volunteers (volar forearm); test: Human patch test irritation analysis; format: in vivo; conditions: 0.25% incorporated into the formulation; Wilcoxon signed rank test, 5% level
Method: Patch tests were performed on mixed panel of 50 volunteers with age ranges between 18 and 55, using a double-blinded protocol with randomised patch sites. Samples (20 mg) were applied to a filter paper that was placed within a Finn™ chamber (0.8 cm internal diameter). The chambers were then attached to the volar forearm using Scanpore™ tape (Norgesplater, Nor.) and left for 47 h.

[5] = system: Human foreskin keratinocytes; test: Keratinocyte proliferation analysis (DNA content per well, Pico Green); format: cell-based; conditions: for keratinocyte DNA synthesis activity, statement: 1 way ANOVA, p<0.05; for DNA: 4 days
Method: (§3) Human foreskin keratinocytes (passage 3) were seeded at 4000 cells/well in 96 well plates in Keratinocyte Growth Medium (abbreviated to KGM) containing 0.03 mM calcium and grown for 3 days at 37° C. The cells were then treated with PPAR ligands in KGM containing 0.03 mM calcium for 4 days prior to harvest. Stock solutions of PPAR ligands were dissolved in dimethylsulphoxide (DMSO) and diluted in KGM before adding to the cells. […] The harvested cells were washed 3× in phosphate buffered saline (PBS) and extracted in 1% Triton X100, 50 mM (tris[hydroxymethyl]aminomethane) (Tris) pH 8.0 plus protease inhibitors pepstatin and leupeptin (100 μl/well). The extract was assayed for DNA content using the Pico Green DNA assay (Molecular Probes, Inc.).
Cultured keratinocytes were treated with cis-9-trans-11 conjugated linoleic acid (CT-CLA) for 4 days. The cells were extracted with Tris-1% Triton X100 and the DNA content per well was determine by the Pico Green assay in accordance with the above described procedure.

[6] = system: Human foreskin keratinocytes; test: Keratinocyte cornified envelope assay; format: cell-based; conditions: for Cornified envelopes assay: 4 days, control (0 μM) 22831
Method: as §3
After Tris-triton extraction for TGase assay, the cells were extracted with 100 μl/well of 2% SDS, 20 mM DTT for 16 hours at 60° C. Once extracted the SDS suspension from each well was individually filtered through polyviylidenefluoride (PVDF) membrane (Immobilon-P™ Transfer Membrane, Millipore) which had been pre-blocked in Tris Buffered Saline (TBS) containing 0.5% (v/v) Tween 20, 0.5% using a Dot Blot TM Apparatus (Bio-Rad). Each sample was washed several times with TBS/Tween buffer before the membrane was removed from the apparatus, rinsed in distilled water and silver stained using silver stain kit (Bio-Rad). The stained dot blot membrane was scanned and analysed using Phoretix Array™ software.
Cultured keratinocytes were treated with pinoleic acid for 4 days. The cells were extracted with 2% SDS, 20 mM DTT and the cornified envelopes were quantified, after filtration using a PDVF membrane, by silver staining, as described above.

[7] = system: Transglutaminase (TGase); test: Keratinocyte transglutaminase (TGase) assay; format: cell-based, human; conditions: for TGase/ng DNA: 4 days, 30 μM Ca2+, control (0 μM) 16.82
Method: as §3
The remaining cell debris attached to the 96 well plate was incubated with 70 μl/well of TGase assay buffer (50 mM Tris™ pH 8.0, 5 mM DTT, 50 mM CaCl2, 150 mM NaCl, 15 μM Texas Red Cadaverine) and incubated for 16 hours at 37° C. The plates were then washed with distilled water (×2) and the fluorescence due to cross-linked Texas Red cadaverine was determined using excitation at 590 nm and emission of 645 nm.
Cultured keratinocytes were treated with cis-9-trans-11-conjugated linoleic acid (CT-CLA) for 4 days. The cells were extracted with Tris-1% Triton X100™ and the non-extractable TGase activity associated with the cells was determined using Texas Red Cadaverine (in accordance with the methods described above).

CCCCCCCCCCC/C=C\CCCCC(=O)O [Petroselinic acid, petroselinic acid]
AP-induced IL-6 release [1]: significantly decrease | Result at (lowest administration level at which super or MS activity was achieved) [2]: 100 μm | Result (superior activity class achieved) [2]: MS (more superior activity [MS] (100% higher—at least 3 times PPARα activation)) | Pass at (lowest tested administration level at which the test material passed) [2]: 10 μm | Culture viability ([3]; Example 2: AP formulation alone vs AP formulation and petroselinic acid): not significantly different | Culture viability ([3]; Example 4: AP treatment alone vs AP and acid treatment): not significantly different | mitigation of irritation induced by the prototype pump spray [4]: significantly mitigated

CCCCC/C=C\C/C=C\CC/C=C\CCCC(=O)O [Pinolenic acid, pinolenic acid]
Pass at (lowest tested administration level at which the test material passed) [2]: 10 μm | keratinocyte DNA synthesis activity, statement ([5]; Example 11: 10 μM): significantly reduce | DNA ([5]; Table 12: 0.1 μM, control (0 μM) 14.46): 13.41 ng/well | DNA ([5]; Table 12: 1 μM, control (0 μM) 14.46): 12.95 ng/well | DNA ([5]; Table 12: 10 μM, control (0 μM) 14.46): 12.63 ng/well | cornified envelope formation, statement ([6]; Example 8: 10 μM, 1 way ANOVA, p<0.05): significantly increase | Cornified envelopes assay ([6]; Table 9: 0.1 μM): 18828 arb. Units | Cornified envelopes assay ([6]; Table 9: 1 μM): 24860 arb. Units | Cornified envelopes assay ([6]; Table 9: 10 μM): 36579 arb. Units

CCCCCC/C=C/C=C\CCCCCCCC(=O)O [CLA (c9, t11), cis-9-trans-11 conjugated linoleic acid]
Result at (lowest administration level at which super or MS activity was achieved) [2]: 25 μm | Result (superior activity class achieved) [2]: super (superior activity [super] (50% higher—at least 2.25 times PPARα activation)) | Pass at (lowest tested administration level at which the test material passed) [2]: 10 μm | TGase/ng DNA ([7]; 0.1 μM): 18.30 | TGase/ng DNA ([7]; 1 μM): 18.46 | TGase/ng DNA ([7]; 10 μM): 28.07 | keratinocyte TGase activity, statement ([7]; 1 way ANOVA, p<0.05): significantly increase | keratinocyte DNA synthesis activity, statement ([5]; Example 10: 10 μM): significantly reduce | DNA ([5]; Table 11: 0.1 μM, control (0 μM) 92.17): 81.83 ng/well | DNA ([5]; Table 11: 1 μM, control (0 μM) 92.17): 81.33 ng/well | DNA ([5]; Table 11: 10 μM, control (0 μM) 92.17): 59.50 ng/well
